# Laboratory results from paper PMC9958940 (Viruses, 2023).
# Starred links: 1 amine or outer side, 2 acyl side, 3 side chain; linkers in the order of their positions; H or OH if unused. Positions of bridges follow the written chain, without caps; N, C: chain ends. Non-standard residues stand in square brackets, D forms with d. Residues, ends and D or L forms follow the SMILES beside them. *: point of attachment. hTyr(3S-OH,4S-OH,3'-OSO3H) = N[C@H](C(=O)O)[C@H](O)[C@@H](O)c1ccc(O)c(OS(=O)(=O)O)c1; Orn(4R-OH,5R-OH) = O=C([C@H](C[C@@H](O)[C@@H](O)N[*:3])N[*:1])[*:2]; Pro(3S-OH,4S-Me) = C[C@H]1CN[C@H](C(=O)O)[C@H]1O; X1 = CCCCCOc1ccc(-c2cc(-c3ccc(C(=O)*)cc3)no2)cc1; Gln(3R-OH) = NC(=O)C[C@@H](O)[C@H](N)C(=O)O; Hyp = O=C(O)[C@@H]1C[C@@H](O)CN1
# Tests used:
# SARS-CoV-2 E406W variant = type: cell-based; settings: read-out: SARS-CoV-2 RNA IC50, E406W
# [1] = test system: SARS-CoV-2 R10/E796G C799F; type: cell-based; settings: read-out: SARS-CoV-2 RNA IC50, R10/E796G C799F
structure (smiles),measurement,setting,value
"CCCCCOc1ccc(-c2cc(-c3ccc(C(=O)N[C@H]4C[C@@H](O)[C@@H](O)NC(=O)[C@@H]5[C@@H](O)[C@@H](C)CN5C(=O)[C@H]([C@H](O)CC(N)=O)NC(=O)[C@H]([C@H](O)[C@@H](O)c5ccc(O)c(OS(=O)(=O)O)c5)NC(=O)[C@@H]5C[C@@H](O)CN5C(=O)[C@H]([C@@H](C)O)NC4=O)cc3)no2)cc1 [Micafungin] (X1-[Orn(4R-OH,5R-OH)]T[Hyp][hTyr(3S-OH,4S-OH,3'-OSO3H)][Gln(3R-OH)][Pro(3S-OH,4S-Me)]; lactam 1-C)",IC50,SARS-CoV-2 E406W variant,21.7 µM
same,IC50,[1],31.3 µM
